target: T1, hGPR40 (Homo sapiens, UniProt O14842); experiment: FDSS-Based Intracellular Calcium Assay; assay type: cell-based; conditions: cells expressing GPR40, intracellular Ca2+ response
T1 construct: 3x FLAG; expressed in transfected cells
Method: FDSS-Based Intracellular Calcium Assay
Cell lines expressing GPR40 are generated using the pDEST 3× flag gene expression system and are cultured in culture medium comprising the following components: F12 (Gibco #11765), 10% lipid deprived fetal bovine serum, 250 μg/ml zeocin and 500 μg/ml G418. To conduct the fluorescent imaging plate reader (FLIPR)-based calcium flux assay to measure intracellular Ca^2+ response, cells expressing GPR40 are plated on 384 well plates (BD Biocoat #356697) at a density of 20,000 cells/20 μL medium per well in phenol red and serum-free DMEM (Gibco #21063-029) and incubated overnight. […] Compounds are dissolved in DMSO and diluted to desired concentrations with assay buffer and added to the cells as 3x solution (20 μL per well). Run fluorescence/luminescence reader FDSS (Hamamatsu) to read intracellular Ca^2+ response.

T1 sequence (O14842 whole entry): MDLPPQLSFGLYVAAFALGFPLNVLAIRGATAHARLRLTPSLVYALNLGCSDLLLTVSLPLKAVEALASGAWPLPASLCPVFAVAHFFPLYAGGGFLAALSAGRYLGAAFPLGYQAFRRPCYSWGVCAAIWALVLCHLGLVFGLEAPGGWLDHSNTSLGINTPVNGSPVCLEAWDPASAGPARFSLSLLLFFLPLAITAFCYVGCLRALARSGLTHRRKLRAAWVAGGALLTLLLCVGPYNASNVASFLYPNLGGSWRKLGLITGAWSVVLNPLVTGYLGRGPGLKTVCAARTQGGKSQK

| Compound | EC50 [nM] |
| --- | --- |
| COc1ccc(F)c(-c2ccc(Cc3ccc(N4N=C(C(F)(F)F)C(C(C)C)C4CC(=O)O)cc3)c(C)c2)c1 (single isomer, unassigned) [Example 45, Isomer 2, 2-(1-(4-((2′-fluoro-5′-methoxy-3-methylbiphenyl-4-yl)methyl)phenyl)-4-isopropyl-3-(trifluoromethyl)-4,5-dihydro-1H-pyrazol-5-yl)acetic acid] | 70 |
| COc1ccc(F)c(-c2ccc(Cc3ccc(N4N=C(C(F)(F)F)C(c5ccccc5)C4CC(=O)O)cc3)c(C)c2)c1 (single isomer, unassigned) [Example 47, Isomer 1, 2-(1-(4-((2′-fluoro-5′-methoxy-3-methylbiphenyl-4-yl)methyl)phenyl)-4-phenyl-3-(trifluoromethyl)-4,5-dihydro-1H-pyrazol-5-yl)acetic acid] | 890 |
| COc1ccc(F)c(-c2ccc(Cc3ccc(N4N=C(C(F)(F)F)C(c5ccccc5)C4CC(=O)O)cc3)c(C)c2)c1 (single isomer, unassigned) [Example 47, Isomer 2, 2-(1-(4-((2′-fluoro-5′-methoxy-3-methylbiphenyl-4-yl)methyl)phenyl)-4-phenyl-3-(trifluoromethyl)-4,5-dihydro-1H-pyrazol-5-yl)acetic acid] | 5930 |
| COc1ccc(F)c(-c2ccc(Cc3ccc(N4N=C(C(F)(F)F)C(CC5CC5)C4CC(=O)O)cc3)c(C)c2)c1 (single isomer, unassigned) [Example 46, Isomer 2, 2-(4-(cyclopropylmethyl)-1-(4-((2′-fluoro-5′-methoxy-3-methylbiphenyl-4-yl)methyl)phenyl)-3-(trifluoromethyl)-4,5-dihydro-1H-pyrazol-5-yl)acetic acid] | 1910 |
| N#CC1=NN(c2ccc(Oc3cccc(Cl)c3)cc2)C(CC(=O)O)C1 (racemic) [Example 4, 2-(1-(4-(3-chlorophenoxy)phenyl)-3-cyano-4,5-dihydro-1H-pyrazol-5-yl)acetic acid] | 220 |
| COc1cc(-c2ccc(Cc3ccc(N4N=C(C(F)(F)F)CC4CC(=O)O)cc3)c(C)c2)c(F)cn1 (single isomer, unassigned) [Example 27, Isomer 1, 2-(1-(4-(4-(5-fluoro-2-methoxypyridin-4-yl)-2-methylbenzyl)phenyl)-3-(trifluoromethyl)-4,5-dihydro-1H-pyrazol-5-yl)acetic acid] | 360 |
| COc1ccc(F)c(-c2ccc(Oc3ccc(N4N=C(c5ncco5)CC4CC(=O)O)cc3)c(C)c2)c1 (single isomer, unassigned) [Example 8, Isomer 1, 2-(1-(4-(2′-fluoro-5′-methoxy-3-methylbiphenyl-4-yloxy)phenyl)-3-(oxazol-2-yl)-4,5-dihydro-1H-pyrazol-5-yl)acetic acid] | 910 |
| COc1ccc(F)c(-c2ccc(Cc3ccc(N4N=C(C(F)(F)F)C(CC5CC5)C4CC(=O)O)cc3)c(C)c2)c1 (single isomer, unassigned) [Example 46, Isomer 1, 2-(4-(cyclopropylmethyl)-1-(4-((2′-fluoro-5′-methoxy-3-methylbiphenyl-4-yl)methyl)phenyl)-3-(trifluoromethyl)-4,5-dihydro-1H-pyrazol-5-yl)acetic acid] | 50 |
| N#CC1=NN(c2ccc(OCc3ccc(Cl)cc3Cl)cc2)C(CC(=O)O)C1 (racemic) [Example 33, 2-(3-cyano-1-(4-(2,4-dichlorobenzyloxy)phenyl)-4,5-dihydro-1H-pyrazol-5-yl)acetic acid] | 300 |
| COc1ccc(F)c(-c2cc(C)c(Oc3ccc(N4N=C(C(F)(F)F)CC4CC(=O)O)cc3)cc2F)c1 (racemic) [Example 12, 2-(1-(4-(2,2′-difluoro-5′-methoxy-5-methylbiphenyl-4-yloxy)phenyl)-3-(trifluoromethyl)-4,5-dihydro-1H-pyrazol-5-yl)acetic acid] | 510 |
| Cc1cc(Cc2ccc(N3N=C(C(F)(F)F)CC3CC(=O)O)cc2)ccc1Br (racemic) [Example 18, 2-(1-(4-(4-bromo-3-methylbenzyl)phenyl)-3-(trifluoromethyl)-4,5-dihydro-1H-pyrazol-5-yl)acetic acid] | 455 |
| COc1ccc(F)c(-c2cc(C)c(Cc3ccc(N4N=C(C(F)(F)F)CC4CC(=O)O)cc3)c(F)c2)c1 (single isomer, unassigned) [Example 21, Isomer 2, 2-(1-(4-((2′,3-difluoro-5′-methoxy-5-methylbiphenyl-4-yl)methyl)phenyl)-3-(trifluoromethyl)-4,5-dihydro-1H-pyrazol-5-yl)acetic acid] | 270 |
| COc1cccc(-c2ccc(Oc3ccc(N4N=C(C(F)(F)F)CC4CC(=O)O)cc3)c(C)c2)c1 (single isomer, unassigned) [Example 9, Isomer 1, 2-(1-(4-(3′-methoxy-3-methylbiphenyl-4-yloxy)phenyl)-3-(trifluoromethyl)-4,5-dihydro-1H-pyrazol-5-yl)acetic acid] | 190 |
| COc1ccc(F)c(-c2ccc(Cc3ccc(N4N=C(C#N)CC4CC(=O)O)cc3)c(C)c2)c1 (single isomer, unassigned) [Example 34, Isomer 1, 2-(3-cyano-1-(4-((2′-fluoro-5′-methoxy-3-methylbiphenyl-4-yl)methyl)phenyl)-4,5-dihydro-1H-pyrazol-5-yl)acetic acid] | 150 |
| COc1ccc(Cc2ccc(N3N=C(C#N)CC3CC(=O)O)cc2)c(C)c1 (racemic) [Example 37, 2-(3-cyano-1-(4-(4-methoxy-2-methylbenzyl)phenyl)-4,5-dihydro-1H-pyrazol-5-yl)acetic acid] | 150 |
| COc1ccc(F)c(-c2ccc(Oc3ccc(N4N=C(C(F)(F)F)CC4CC(=O)O)cc3)cc2C)c1 (single isomer, unassigned) [Example 16, Isomer 1, 2-(1-(4-(2′-fluoro-5′-methoxy-2-methylbiphenyl-4-yloxy)phenyl)-3-(trifluoromethyl)-4,5-dihydro-1H-pyrazol-5-yl)acetic acid] | 670 |
| COc1ccc(F)c(-c2ccc(Oc3ccc(N4N=C(C(F)(F)F)CC4CC(=O)O)cc3)c(C)c2)c1 (single isomer, unassigned) [Example 14, Isomer 2, 2-(1-(4-(2′-fluoro-5′-methoxy-3-methylbiphenyl-4-yloxy)phenyl)-3-(trifluoromethyl)-4,5-dihydro-1H-pyrazol-5-yl)acetic acid] | 160 |
| COc1cccc(-c2ccc(Cc3ccc(N4N=C(C#N)CC4CC(=O)O)cc3)c(C)c2)c1 (racemic) [Example 38, 2-(3-cyano-1-(4-((3′-methoxy-3-methylbiphenyl-4-yl)methyl)phenyl)-4,5-dihydro-1H-pyrazol-5-yl)acetic acid] | 190 |

More lines, now with the values ahead:

| EC50 [nM] | Compound |
| --- | --- |
| 510 | COc1ccc(F)c(-c2ccc(Cc3ccc(N4N=C(c5ccc(Cl)cc5)[C@@H](C)[C@@H]4CC(=O)O)cc3)c(C)c2)c1 (single isomer, unassigned) [Example 66, isomer 2] |
| 6 | COc1ccc(F)c(-c2ccc(Cc3ccc(N4N=C(c5ccccc5)C(C)C4CC(=O)O)cc3)c(C)c2)c1 (single isomer, unassigned) [Example 59, Isomer 2, 2-(1-(4-((2′-fluoro-5′-methoxy-3-methyl-[1,1′-biphenyl]-4-yl)methyl)phenyl)-4-methyl-3-phenyl-4,5-dihydro-1H-pyrazol-5-yl)acetic acid] |
| 270 | COc1ccc(F)c(-c2ncc(Cc3ccc(N4N=C(c5ccccc5)[C@@H](C)[C@@H]4CC(=O)O)cc3)c(C)n2)c1 [Example 64, 2-((4S,5S)-1-(4-((2-(2-fluoro-5-methoxyphenyl)-4-methylpyrimidin-5-yl)methyl)phenyl)-4-methyl-3-phenyl-4,5-dihydro-1H-pyrazol-5-yl)acetic acid] |
| 800 | COc1ccc(F)c(-c2ccc(Cc3ccc(N4N=C(c5ccc(F)cc5)[C@@H](C)[C@@H]4CC(=O)O)cc3)c(C)c2)c1 (single isomer, unassigned) [Example 67, isomer 2] |
| 300 | COc1ccc(F)c(-c2ccc(Cc3ccc(N4N=C(C#N)C(C)C4CC(=O)O)cc3)c(C)c2)c1 (single isomer, unassigned) [Example 52, Isomer 2, 2-(3-cyano-1-(4-((2′-fluoro-5′-methoxy-3-methylbiphenyl-4-yl)methyl)phenyl)-4-methyl-4,5-dihydro-1H-pyrazol-5-yl)acetic acid] |
| 150 | Cc1cc(-c2cc(O)ccc2F)ccc1Cc1ccc(N2N=C(C(F)(F)F)[C@@H](C)[C@@H]2CC(=O)O)cc1 [Example 56, 2-((4S,5S)-1-(4-((2′-fluoro-5′-hydroxy-3-methyl-[1,1′-biphenyl]-4-yl)methyl)phenyl)-4-methyl-3-(trifluoromethyl)-4,5-dihydro-1H-pyrazol-5-yl)acetic acid] |
| 1620 | Cc1cc(-c2cnccn2)ccc1Cc1ccc(N2N=C(C(F)(F)F)[C@@H](C)[C@@H]2CC(=O)O)cc1 [Example 76, 2-((4S,5 S)-4-methyl-1-(4-(2-methyl-4-(pyrazin-2-yl)benzyl)phenyl)-3-(trifluoromethyl)-4,5-dihydro-1H-pyrazol-5-yl)acetic acid] |
| 40 | COc1ccc(F)c(-c2ccc(Cc3ccc(N4N=C(C(F)(F)F)C(C)C4CC(=O)O)cc3)c(Cl)c2)c1 (single isomer, unassigned) [Example 60, Isomer 2, 22-(1-(4-((3-chloro-2′-fluoro-5′-methoxy-[1,1′-biphenyl]-4-yl)methyl)phenyl)-4-methyl-3-(trifluoromethyl)-4,5-dihydro-1H-pyrazol-5-yl)acetic acid] |

— patent publication US9656963B2 (BRISTOL-MYERS SQUIBB COMPANY, priority 2012, dated 2017)
